# Numbering of substitutions follows the chain as printed. Where “and” joins values, the source holds several entries; their conditions need not be identical. Equal entries are not always repeated.
# How the values were obtained:
# Assay type in all cases: cell-based
# hTA1 R83H = target: T1, hTA1 R83H (Homo sapiens, UniProt Q96RJ0, R83H); assay: GloSensor cAMP accumulation assay, R83H mutant;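 also: cells transiently co-expressing hTA1 and a cAMP GloSensor, luminescence read 30 min after agonist addition at room temperature, concentration–response fitted by non-linear regression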
# T1 construct: expressed in transfected cells; host or cells: HEK293T
# T1 sequence (Q96RJ0 1-339 R83H): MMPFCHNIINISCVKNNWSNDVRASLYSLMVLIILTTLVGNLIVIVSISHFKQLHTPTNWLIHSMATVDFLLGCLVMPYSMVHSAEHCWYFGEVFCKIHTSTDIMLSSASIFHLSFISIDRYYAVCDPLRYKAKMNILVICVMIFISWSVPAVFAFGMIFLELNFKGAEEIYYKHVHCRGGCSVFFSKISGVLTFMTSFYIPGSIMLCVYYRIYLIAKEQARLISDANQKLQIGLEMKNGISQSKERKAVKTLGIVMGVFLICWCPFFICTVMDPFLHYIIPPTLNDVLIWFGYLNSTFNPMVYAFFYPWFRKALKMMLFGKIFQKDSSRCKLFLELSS
# hTA1 V184P = target: T2, hTA1 V184P (Homo sapiens, UniProt Q96RJ0, V184P); assay: GloSensor cAMP accumulation assay, V184P mutant; details: for cAMP accumulation response, single replicate values (source data, Supplementary Figure 5): hTA1 V184P (N=2), log[Compound]
# T2 construct: expressed in transfected cells; host or cells: HEK293T
# T2 sequence (Q96RJ0 1-339 V184P): T1 sequence (Q96RJ0 1-339 R83H) with H83R, V184P
# hTA1 C5S = target: T3, hTA1 C5S (Homo sapiens, UniProt Q96RJ0, C5S); assay: GloSensor cAMP accumulation assay, C5S mutant; details: for C5S - Normalized Luminescence Counts (N=2): log[Compound], single wells
# T3 construct: expressed in transfected cells; host or cells: HEK293T
# T3 sequence (Q96RJ0 1-339 C5S): T1 sequence (Q96RJ0 1-339 R83H) with C5S, H83R
# hTA1 T271N = target: T4, hTA1 T271N (Homo sapiens, UniProt Q96RJ0, T271N); assay: GloSensor cAMP accumulation assay, T271N mutant
# T4 construct: expressed in transfected cells; host or cells: HEK293T
# T4 sequence (Q96RJ0 1-339 T271N): T1 sequence (Q96RJ0 1-339 R83H) with H83R, T271N
smiles,measurement,setting,value
Cc1c(F)cccc1[C@H]1COC(N)=N1 [Ro5263397],ΔEmax values (each mutant value - WT average),hTA1 R83H; R83H mutant minus WT average,-44.7513
same,ΔpEC50 values (each mutant value - WT average),hTA1 R83H; R83H mutant minus WT average,-0.3934 and -0.2739
same,"pEC50 values, Mean","hTA1 R83H; R83H mutant, each line an independent experiment, 3 replicates",8.438 and 8.557
same,"Emax values, Mean","hTA1 R83H; R83H mutant, β-PEA = 100, each line an independent experiment, 3 replicates",41.952 and 25.7686
same,Span ± SEM (Emax normalized to β-PEA),"hTA1 R83H; R83H, n=2",33.86 ± 8.09
same,pEC50 ± SEM,"hTA1 R83H; R83H, n=2",8.5 ± 0.15
same,EC50,"hTA1 R83H; R83H, n=2, read-out: EC50",3.18 nM
same,Span ± SEM (Emax normalized to β-PEA),"hTA1 V184P; V184P, n=2",67.49 ± 4.18
same,pEC50 ± SEM,"hTA1 V184P; V184P, n=2",8.72 ± 0.1
same,EC50,"hTA1 V184P; V184P, n=2, read-out: EC50",1.89 nM
same,"cAMP accumulation response, single replicate values (source data, Supplementary Figure 5)",hTA1 V184P; M = -5,75.9826 and 54.4514 and 68.5146 and 68.2232 and 103.41 and 63.2018
same,"cAMP accumulation response, single replicate values (source data, Supplementary Figure 5)",hTA1 V184P; M = -5.522,60.8526 and 56.6821 and 51.6388 and 54.9916 and 88.8585 and 75.7736
same,"cAMP accumulation response, single replicate values (source data, Supplementary Figure 5)",hTA1 V184P; M = -6,62.1134 and 62.7923 and 57.749 and 52.2793 and 90.2146 and 61.0026
same,"cAMP accumulation response, single replicate values (source data, Supplementary Figure 5)",hTA1 V184P; M = -6.522,55.2273 and 58.8159 and 63.0833 and 59.17 and 90.5079 and 61.9556
same,"cAMP accumulation response, single replicate values (source data, Supplementary Figure 5)",hTA1 V184P; M = -7,76.2736 and 57.458 and 63.8592 and 78.4492 and 93.4034 and 75.9935
same,"cAMP accumulation response, single replicate values (source data, Supplementary Figure 5)",hTA1 V184P; M = -7.522,63.0833 and 60.2707 and 53.2876 and 78.6325 and 73.831 and 68.1499
same,"cAMP accumulation response, single replicate values (source data, Supplementary Figure 5)",hTA1 V184P; M = -8,45.7226 and 42.0371 and 33.6962 and 79.732 and 85.8896 and 81.3081
same,"cAMP accumulation response, single replicate values (source data, Supplementary Figure 5)",hTA1 V184P; M = -8.522,24.6764 and 22.5426 and 25.9372 and 54.0753 and 61.6257 and 60.123
same,"cAMP accumulation response, single replicate values (source data, Supplementary Figure 5)",hTA1 V184P; M = -9,15.8505 and 15.9475 and 14.9776 and 42.9696 and 48.944 and 40.6972
same,"cAMP accumulation response, single replicate values (source data, Supplementary Figure 5)",hTA1 V184P; M = -9.522,5.57 and 4.794 and 3.436 and 18.8157 and 20.0985 and 19.2188
same,"cAMP accumulation response, single replicate values (source data, Supplementary Figure 5)",hTA1 V184P; M = -10,-0.05538 and 0.9145 and 0.6235 and 8.626 and 10.7888 and 9.213
same,"cAMP accumulation response, single replicate values (source data, Supplementary Figure 5)",hTA1 V184P; M = -10.522,-0.8313 and -0.6373 and -1.025 and 2.3587 and 2.835 and 2.469
same,"cAMP accumulation response, single replicate values (source data, Supplementary Figure 5)",hTA1 V184P; M = -11,-0.6373 and -0.7343 and -1.316 and 1.442 and 2.102 and 1.039
same,"cAMP accumulation response, single replicate values (source data, Supplementary Figure 5)",hTA1 V184P; M = -11.522,-1.025 and -1.607 and -1.51 and 0.1962 and 0.9659 and -0.5735
same,"cAMP accumulation response, single replicate values (source data, Supplementary Figure 5)",hTA1 V184P; M = -12,-0.9283 and -1.122 and -1.4132 and 19.5854 and 20.7216 (2×)
same,"cAMP accumulation response, single replicate values (source data, Supplementary Figure 5)",hTA1 V184P; M = -12.522,-1.316 and -1.219 and -0.9283 and 4.704 and 5.621 and 6.281
same,"pEC50 values, Mean","hTA1 V184P; hTA1 V184P mutant, Figure 3B source data, each grid row a separate experiment, 3 replicates",8.393 and 9.05
same,"Emax values, Mean","hTA1 V184P; hTA1 V184P mutant, β-PEA set to 100, each grid row a separate experiment, 3 replicates",63.3156 and 71.6719
same,Span ± SEM (Emax normalized to β-PEA),"hTA1 C5S; C5S, n=2",85.5 ± 2.16
same,pEC50 ± SEM,"hTA1 C5S; C5S, n=2",8.41 ± 0.07
same,EC50,"hTA1 C5S; C5S, n=2, read-out: EC50",3.89 nM
same,"ΔpEC50 values (each mutant value - WT average), Mean",hTA1 C5S; hTA1 C5S minus WT average,-0.4275 and -0.4158
same,"pEC50 values, Mean","hTA1 C5S; hTA1 C5S, mean of 3 replicates, one line per independent experiment",8.404 and 8.415
same,"Emax values, Mean","hTA1 C5S; hTA1 C5S, β-PEA = 100, mean of 3 replicates, one line per independent experiment",87.6591 and 83.3363
same,C5S - Normalized Luminescence Counts (N=2),hTA1 C5S; M = -5,85.0708 and 100.74 and 87.5995 and 113.126 and 96.6929 and 89.5813
same,C5S - Normalized Luminescence Counts (N=2),hTA1 C5S; M = -5.522,97.1276 and 85.703 and 92.1378 and 95.6573 and 94.8978 and 70.801
same,C5S - Normalized Luminescence Counts (N=2),hTA1 C5S; M = -6,93.0635 and 85.8836 and 79.9907 and 67.4868 and 91.9288 and 67.763
same,C5S - Normalized Luminescence Counts (N=2),hTA1 C5S; M = -6.522,88.5027 and 85.5675 and 89.6542 and 93.5169 and 82.6077 and 78.2579
same,C5S - Normalized Luminescence Counts (N=2),hTA1 C5S; M = -7,87.2609 and 83.7612 and 87.2157 and 111.607 and 73.6318 and 82.4696
same,C5S - Normalized Luminescence Counts (N=2),hTA1 C5S; M = -7.522,71.4335 and 67.6629 and 81.3002 and 85.1624 and 76.2555 and 81.6411
same,C5S - Normalized Luminescence Counts (N=2),hTA1 C5S; M = -8,61.928 and 52.9645 and 61.8152 and 50.2945 and 70.0415 and 59.7537
same,C5S - Normalized Luminescence Counts (N=2),hTA1 C5S; M = -8.522,48.2456 and 39.1466 and 43.2332 and 39.9378 and 36.8998 and 46.1518
same,C5S - Normalized Luminescence Counts (N=2),hTA1 C5S; M = -9,23.0031 and 19.2551 and 16.9296 and 21.986 and 33.2404 and 18.948
same,C5S - Normalized Luminescence Counts (N=2),hTA1 C5S; M = -9.522,10.2012 and 7.989 and 6.476 and 12.3887 and 12.803 and 8.1079
same,"ΔpEC50 values (each mutant value - WT average), Mean","hTA1 T271N; T271N mutant minus WT average, Figure 5B",-0.511 and -0.5494
same,"pEC50 values, Mean","hTA1 T271N; T271N mutant, Figure 5B, each row one independent experiment (3 replicates)",8.32 and 8.282
same,"Emax values, Mean","hTA1 T271N; T271N mutant, Figure 5B, β-PEA = 100, each row one independent experiment (3 replicates)",116.619 and 99.549
same,Span ± SEM (Emax normalized to β-PEA),"hTA1 T271N; T271N, n=2",108.08 ± 8.54
same,pEC50 ± SEM,"hTA1 T271N; T271N, n=2",8.3 ± 0.07
same,EC50,"hTA1 T271N; T271N, n=2, read-out: EC50",5 nM

# Source: paper PMC10762035, “Molecular basis of human trace amine-associated receptor 1 activation” (Nature Communications, 2024)
